Patent US20250186600A1, “EXCIPIENT COMPOUNDS FOR PROTEIN FORMULATIONS” (Comera Life Sciences, Inc., priority 2020, published 2025)
Where a name gives a salt, the structure may show the parent alone. Residues, ends and D or L forms follow the SMILES beside them.

Legend:
[1] = test system: omalizumab; test: Viscosity of omalizumab solution by DLS of gold nanoparticles (Example 62); settings: omalizumab approximately 200 mg/mL, excipient 0.1M or lower, His HCl pH 6.0, 25° C.
[2] = test system: omalizumab; test: Diffusion interaction parameter kD of omalizumab by DLS (Example 62); settings: omalizumab 10 to 0.6 mg/mL, 0.1M excipient, His HCl pH 6.0, 25° C.
[3] = test system: ustekinumab; test: Urea denaturation, Sypro orange fluorescence (Example 44); type: physicochemical; settings: excipient 5 mg/mL, ustekinumab 1 mg/mL, 6M urea, 20 mM histidine pH 6.0, Sypro orange fluorescence
Text: It is known that urea denatures proteins in solution and causes them to unfold. The screening methodology in this example involved adding a specific concentration of urea to a therapeutic protein solution such as ustekinumab. […] One method to track protein unfolding involves the use of extrinsic fluorescent dyes such as Sypro orange. Sypro orange binds to hydrophobic regions in the unfolded protein structure, leading to an increase in the fluorescence signal observed. Measuring the differences in the fluorescence intensity of unfolded protein-Sypro orange complex in presence of different excipients thus allows one to identify any stabilizing effects.
All excipients used in this Example, listed in Table 45 below, were of the highest purity, and were obtained from Sigma Aldrich (St. Louis, MO) or Cayman Chemical (Ann Arbor, MI). […] This urea stock solution was then added to a final concentration of 6M to produce the test solutions (excipient plus protein plus urea). […] The pH of the mixture was rechecked and confirmed to be at pH 6.0. The test solutions were allowed to incubate at room temperature for 30 min.

[4] = test system: ustekinumab; test: Stabilization at low pH, Sypro orange fluorescence (Example 45); settings: excipient 5 mg/mL, ustekinumab 1 mg/mL, glycine acidification buffer pH 2.6, Sypro orange fluorescence
[5] = test system: omalizumab; test: DLS viscosity of concentrated omalizumab (Example 54); type: physicochemical; settings: concentrated omalizumab 9 parts : 1 part excipient stock (1 M or solubility limit), 20 mM HisHCl pH 6
Procedure: Hordenine HCl was purchased from Bulk Supplements (Henderson, NV).
The concentrated protein formulation was then combined with a stock excipient solution or a control at a ratio of 9 parts protein: 1 part excipient solution or buffer (for the control), and aliquots were added to the wells of a 384 well microplate (Aurora Microplates, Whitefish, MT). […] After the microplate was shaken, 2 microliters of a 5-fold dilution of polyethylene glycol surface-modified gold nanoparticles having a diameter of 100 nm (nanoComposix, San Diego, CA) in 20 mM His HCl were added to each sample well. […] In this example, the ratio of apparent radius to the actual radius of the gold nanoparticle was multiplied by the viscosity of water at 25° C. to calculate the viscosity of the protein formulation in centipoise (cP).

[6] = test system: proteins described in Table 50; test: DLS diffusion interaction parameter kD (Example 49); type: physicochemical; settings: mixed 1:1 with protein solution, 20 mM His HCl pH 6, 25° C.
Procedure: The resulting solution was titrated to pH 6 by dropwise addition of 1 M hydrochloric acid. After pH adjustment, the buffer was diluted to a final volume of 1 L in a volumetric flask with Type 1 ultrapure water. All excipients used in this Example, listed in Table 50 below, were of the highest purity, and were obtained from Sigma Aldrich (St. Louis, MO) or Cayman Chemical (Ann Arbor, MI).
A series of six test protein solutions were prepared using the proteins described in Table 50, ranging in protein concentration from about 4 mg/mL to about 20 mg/mL, all in 20 mM His HCl buffer at pH 6. […] A second centrifuge step was completed to remove air bubbles. The diffusion interaction parameter (kD) of these protein-excipient formulations was measured by dynamic light scattering (DLS) in dilute solution as a way of probing the impact of excipients on protein-protein interactions (PPI). […] A more negative kD indicated a stronger net attractive PPI and a more positive kD indicated a stronger net repulsive PPI.

[7] = excipient stock concentration 200 mM
[8] = excipient stock concentration 100 mM

Compound: NC(C(=O)O)C(O)c1ccccc1 (racemic) [DL-3-phenylserine]
- Viscosity normalized to control ([1]; Table 62B series): 1.04
- kD ([2]; Table 62B series): -30.7 mL/g

Compound: NCCCN [1,3-Diaminopropane]
- Viscosity normalized to control ([1]; Table 62A series): 0.49
- kD ([2]; Table 62A series): -11.3 mL/g

Compound: CN1CCN(C)C1=O [1,3-Dimethyl-2-imidazolidinone]
- Viscosity normalized to control ([1]; Table 62A series): 0.98
- kD ([2]; Table 62A series): -30.9 mL/g

Compound: NCCCN [1,3-diaminopropane]
- Viscosity normalized to control ([1]; Table 62B series): 0.22
- kD ([2]; Table 62B series): -11.4 mL/g

Compound: O=S(=O)(O)c1cccc2c(S(=O)(=O)O)cccc12 [1,5-naphthalenedisulfonic acid]
- Viscosity normalized to control ([1]; Table 62A series): 0.83
- kD ([2]; Table 62A series): -25.1 mL/g

Compound: O=C(O)CCCc1ccccc1 [4-phenylbutyric acid]
- % increased stability [3]: 9.0%

Compound: O=C(O)c1cccc(O)n1 [6-hydroxypyridine-2-carboxylic acid]
- Viscosity normalized to control ([1]; Table 62A series): 0.93
- kD ([2]; Table 62A series): -31.9 mL/g

Compound: COC(=O)[C@H](Cc1ccccc1)NC(=O)[C@@H](N)CC(=O)O [Aspartame] (H-Asp-Phe-OMe)
- Viscosity normalized to control ([1]; Table 62A series): 0.71

Compound: NC(=NO)c1ccccc1 [Benzamide oxime]
- % change in stability [4]: 70.6%

Compound: Nc1ccn([C@@H]2O[C@H](COP(=O)(O)O)[C@@H](O)[C@H]2O)c(=O)n1 [Cytidine monophosphate]
- % change in stability [4]: 83.1%

Compound: O=C(O)CN(CCN(CC(=O)O)CC(=O)O)CCN(CC(=O)O)CC(=O)O [Diethylenetriaminepentaacetic acid]
- % change in stability [4]: 11.8%

Compound: Nc1nc(=O)n([C@@H]2CS[C@H](CO)O2)cc1F [Emtricitabine]
- % change in stability [4]: 2.9%

Compound: OC[C@@H](O)[C@@H](O)CO [Erythritol]
- % change in stability [4]: 1.8%

Compound: Cn1ccnc1 [Excipient 1-methylimidazole, 1-methylimidazole]
- DLS Viscosity, Replicate 1 [5]: 53.4 cP
- DLS Viscosity, Replicate 2 [5]: 54.8 cP

Compound: CCCCc1ncc[nH]1 [Excipient 2-butylimidazole, 2-butylimidazole]
- DLS Viscosity, Replicate 1 [5]: 26.0 cP

Compound: CCc1ncc[nH]1 [Excipient 2-ethylimidazole, 2-ethylimidazole]
- DLS Viscosity, Replicate 1 [5]: 57.5 cP
- DLS Viscosity, Replicate 2 [5]: 71.8 cP

Compound: Cc1ncc[nH]1 [Excipient 2-methylimidazole, 2-methylimidazole]
- DLS Viscosity, Replicate 1 [5]: 65.6 cP
- DLS Viscosity, Replicate 2 [5]: 81.3 cP

Compound: Nc1ccncc1 [Excipient 4-aminopyridine, 4-aminopyridine]
- Viscosity normalized to control ([1]; Table 62B series): 0.59
- kD ([2]; Table 62B series): -22.5 mL/g

Compound: CN(C)CCc1ccc(O)cc1 [Hordenine HCl]
- DLS Viscosity, Replicate 1 [5]: 36.9 cP
- DLS Viscosity, Replicate 2 [5]: 22.8 cP

Compound: OC[C@@H](O)[C@@H](O[C@@H]1O[C@H](CO)[C@H](O)[C@H](O)[C@H]1O)[C@H](O)[C@@H](O)CO [Lactitol]
- % change in stability [4]: 0.6%

Compound: OC[C@H]1OC(O)[C@@H](O)[C@@H](O)[C@@H]1O (stereo partly shown) [Mannose]
- % change in stability [4]: 9.4%

Compound: NC(=O)CN1CCCC1=O [Piracetam]
- Omalizumab kD [6, 7]: -23.6 mL/g
- Ustekinumab kD [6, 7]: 27.3 mL/g

Compound: O.O.O.O.O.O.O.O.O.O.[Na+].[Na+].[O-]B1OB2OB([O-])OB(O1)O2 [Sodium borate]
- Omalizumab kD [6, 7]: -28.8 mL/g
- Ustekinumab kD [6, 7]: 17.9 mL/g

Compound: CN[C@@H]1[C@H](O)[C@H](NC)[C@H]2O[C@@]3(O)C(=O)C[C@@H](C)O[C@H]3O[C@@H]2[C@H]1O [Spectinomycin]
- DLS Viscosity, Replicate 1 [5]: 60.1 cP
- DLS Viscosity, Replicate 2 [5]: 33.9 cP

Compound: CC[N+](CC)(CC)CC.Cl [Tetraethylammonium HCl]
- DLS Viscosity, Replicate 1 [5]: 73.7 cP
- DLS Viscosity, Replicate 2 [5]: 58.3 cP

Compound: NCC(=O)NCC(=O)NCC(=O)NCC(=O)O [Tetraglycine] (H-GGGG-OH)
- DLS Viscosity, Replicate 1 [5]: 89.7 cP
- DLS Viscosity, Replicate 2 [5]: 72.2 cP

Compound: CN(C)CCN(C)C.Cl [Tetramethylethylenediamine HCl]
- Omalizumab kD [6, 7]: -14.6 mL/g
- Ustekinumab kD [6, 7]: 0.1 mL/g

Compound: NCCc1c[nH]c2ccccc12 [Tryptamine]
- % increased stability [3]: 11.6%

Compound: NC(=NO)c1ccccc1 [benzamide oxime]
- % increased stability [3]: 1.4%

Compound: O=C(O)/C=C/c1ccc(O)c(O)c1 [caffeic acid]
- Viscosity normalized to control ([1]; Table 62A series): 0.73
- kD ([2]; Table 62A series): -33.9 mL/g

Compound: NCCS [cysteamine HCl]
- Viscosity normalized to control ([1]; Table 62B series): 0.73
- kD ([2]; Table 62B series): -18.5 mL/g

Compound: OCCN(CCO)c1nc(N2CCCCC2)c2nc(N(CCO)CCO)nc(N3CCCCC3)c2n1 [dipyridamole]
- Viscosity normalized to control ([1]; Table 62B series): 1.10
- kD ([2]; Table 62B series): -31.2 mL/g

Compound: NCCO [ethanolamine HCl]
- Viscosity normalized to control ([1]; Table 62B series): 0.51
- kD ([2]; Table 62B series): -22.4 mL/g

Compound: Nc1nc(=O)c2c([nH]1)NCC(CNc1ccc(C(=O)N[C@@H](CCC(=O)[O-])C(=O)[O-])cc1)N2C=O.[Ca+2] (stereo partly shown) [folinic acid calcium salt]
- Viscosity normalized to control ([1]; Table 62B series): 0.93
- kD ([2]; Table 62B series): -34.9 mL/g

Compound: O=C(O)c1ccncc1 [isonicotinic acid]
- % increased stability [3]: 4.4%

Compound: NCCCC[C@H](N)C(=O)O [lysine]
- Viscosity normalized to control ([1]; Table 62B series): 0.46
- kD ([2]; Table 62B series): -10.1 mL/g

Compound: NCc1cccc(CN)c1 [m-xylylenediamine]
- Viscosity normalized to control ([1]; Table 62B series): 0.22
- kD ([2]; Table 62B series): -13.1 mL/g

Compound: NC(=O)c1ccc[n+]([C@@H]2O[C@H](COP(=O)([O-])O)[C@@H](O)[C@H]2O)c1 [nicotinamide mononucleotide]
- Viscosity normalized to control ([1]; Table 62B series): 0.83
- kD ([2]; Table 62B series): -31.4 mL/g

Compound: O=C(O)c1cccnc1 [nicotinic acid]
- Viscosity normalized to control ([1]; Table 62B series): 0.55
- kD ([2]; Table 62B series): -24.5 mL/g

Compound: Cc1ncc(CO)c(CO)c1O.Cl [pyridoxine HCl]
- Omalizumab kD [6, 7]: -4.3 mL/g
- Ustekinumab kD [6, 7]: -0.5 mL/g

Compound: O=C(O)[C@]1(O)C[C@@H](O)[C@@H](O)[C@H](O)C1 [quinic acid]
- Viscosity normalized to control ([1]; Table 62B series): 0.67
- kD ([2]; Table 62B series): -24.2 mL/g

Compound: C#CCN[C@@H]1CCc2ccccc21 [rasagiline mesylate]
- Omalizumab kD [6, 8]: -24.1 mL/g
- Ustekinumab kD [6, 8]: 26.5 mL/g

Compound: CNCC(=O)O [sarcosine]
- Viscosity normalized to control ([1]; Table 62B series): 1.33
- kD ([2]; Table 62B series): -29.9 mL/g

Compound: NCCCCNCCCN [spermidine]
- Viscosity normalized to control ([1]; Table 62B series): 0.31
- kD ([2]; Table 62B series): -13.7 mL/g

Compound: Pyridyl ethylamine
- % change in stability [4]: 85.6%
